Drawing on PubChem BioAssay (NCI), this text covers TGI and GI50 for 22 molecules.

Holding throughout (assay): NCI anticancer screen, dose series, 48 h
The test system of assay [1] is TK-10 renal.
The subject of assay [2] is M14 melanoma.
Assay [3] deals with COLO 205 colon.
Assay [4] concerns RPMI-8226 leukemia.
In assay [5] the test system is NCI-H522 lung.
Assay [6] has as its system LOX IMVI melanoma.
Assay [7] concerns CCRF-CEM leukemia.
Assay [8] concerns KM12 colon.
Assay [9] concerns HCT-116 colon.

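48-hour exposure; five concentrations; linearly interpolated endpoints. GI50 marks 50% less growth. The concentration for full growth arrest is given as TGI.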

For the molecule `C[C@H]1NC(=O)C2CCCCN2C(=O)CN(C)C(=O)CNC(=O)C2CCCCN2C(=O)[C@@H](NC(=O)c2nc3ccccc3cc2O)[C@@H](C)NC(=O)C2CCCCN2C(=O)CN(C)C(=O)CNC(=O)[C@@H]2CCCCN2C(=O)C1NC(=O)c1nc2ccccc2cc1O` (some centres not stated), the TGI in assay [1] is > 100 µM; in assay [2], 1.27 µM; in assay [3] it was 0.641 µM; in [4], 0.764 µM; in assay [5] it was 0.494 µM; in assay [6], > 100 µM. In addition, the TGI in assay [7] amounted to 5.16 µM; in assay [8], 18.7 µM.
`c1ccc(SC2CCSc3ccccc3C2Sc2ccccc2)cc1` (configuration not stated): the TGI in assay [1], in [2], in assay [4], in assay [5], in assay [6] and in assay [9] was > 100 µM throughout. The TGI in assay [7] and in assay [8] was > 100 µM each time.
For `CCOC(=O)C1(c2ccccc2)CCC(=O)CC1`, the TGI in assay [1], in [2], in [3], in assay [5], in assay [6] and in assay [9] was > 100 µM throughout. In addition, the TGI in [7] and in assay [8] was > 100 µM each time.
On to `CC(=O)n1c2c(c(=O)n1-c1ccccc1)S(=O)CCC2` (configuration not stated), for which the TGI was > 100 µM in assay [1]; > 100 µM in [2]; > 100 µM in assay [3]; 27.9 µM in [4]; 16.3 µM in [5]; > 100 µM in assay [6]. Also, the results for the TGI in [9], in [7] and in assay [8] were > 100 µM, 26.4 µM and > 100 µM, respectively.
As to `CC[C@@]12N=C(N(C)C)C[C@]1(O)ON=C2C`, the TGI in assay [1], in assay [2], in assay [3], in assay [4], in [5] and in [9] was > 100 µM in each case. Also, the TGI in assay [7] and in assay [8] was > 100 µM each time.
As to `Cc1ccc(NC(=O)C2C(=O)N(c3ccc(C)c(C)c3)C(=O)C2N=N)cc1C` (configuration not stated), the TGI in assay [1], in assay [2], in [3], in assay [5], in assay [9] and in assay [8] was > 100 µM each time.
As to `COc1ccc2oc(-c3cccnc3)cc(=O)c2c1`, the TGI in assay [2], in assay [3], in [4], in assay [6], in assay [9] and in assay [7] was > 100 µM throughout. The TGI in [8] was > 100 µM.
With `COc1ccc(/C(=N\NC(=O)C(N)=O)C(c2ccc(OC)cc2)C2(O)C(=O)Nc3c(Cl)cccc32)cc1` (configuration not stated), the TGI in assay [1], in assay [2], in [3], in [4], in [6] and in [9] was > 100 µM throughout. The TGI in [7] and in assay [8] was > 100 µM in each case.
Turning to `COc1ccc(NC(=O)/C(N=O)=C(/C)O)cc1`, the TGI is > 100 µM in assay [1]; > 100 µM in assay [2]; > 100 µM in [4]; 47.9 µM in assay [6]; > 100 µM in assay [9]; > 100 µM in assay [7]. For the same molecule, the TGI in [8] is > 100 µM.
On to `O=C(N/N=C1/C(=O)N(c2ccc(Cl)cc2Cl)C(=O)C(=O)C1c1nc2ccccc2o1)c1ccccc1O` (configuration not stated), for which the TGI was > 100 µM in assay [1]; 76.2 µM in [2]; > 100 µM in assay [3]; > 100 µM in assay [4]; 87.7 µM in [5]; > 100 µM in assay [9]. Besides, the TGI in assay [7] and in assay [8] was > 100 µM each time.
`O=C(O)[C@H](NS(=O)(=O)c1ccc2ccccc2c1)c1ccccc1`: the TGI in [2], in assay [3], in assay [4], in assay [5], in [6] and in [7] was > 100 µM in each case.
`O=C1CC(C[C@H](O)C2CCCCC2O)CC(=O)N1Cc1ccccc1` (some centres not stated): the TGI in [1], in [2], in assay [3], in assay [5], in assay [6] and in assay [9] was > 100 µM throughout. In addition, the TGI in assay [7] and in assay [8] was > 100 µM in each case.
Turning to `COc1cccc(/C=N/[N-]C(=O)c2ccncc2)c1[O-].[Cu+2].[OH3+]`, the GI50 was > 100 µM in assay [1]; 61.3 µM in assay [2]; 78.4 µM in [3]; > 100 µM in assay [4]; > 100 µM in assay [6]; 23.8 µM in [9]. Besides, the GI50 is 27.9 µM in assay [7] and > 100 µM in [8]. The TGI in assay [1] was > 100 µM; in [2] it was > 100 µM; in assay [3], > 100 µM; in assay [4] it was > 100 µM; in [6], > 100 µM; in [9], 93.9 µM. Besides, the TGI in assay [7] and in assay [8] was > 100 µM in each case.
Take `Cc1ccc(Cn2c(C)nc3c2C(=O)c2ccccc2C3=O)cc1`: the TGI in [1] is 80.8 µM; in [2], > 100 µM; in [3] it was > 100 µM; in assay [5], 18.1 µM; in assay [6], 6.18 µM; in assay [9], 16.3 µM. The TGI in [7] and in assay [8] was > 100 µM throughout.
For the molecule `O=C(O)CSc1n[nH]c(-c2ccccc2)n1`, the TGI in assay [1], in assay [2], in [3], in assay [4], in assay [5] and in [6] was > 100 µM in each case. For the same molecule, the TGI in assay [7] and in [8] was > 100 µM each time.
For `CCOc1ccc(N2C(=O)/C(=C/c3ccc(N(CCC#N)CCC#N)cc3)N=C2c2cc([N+](=O)[O-])ccc2Cl)cc1`, the TGI is > 100 µM in assay [1]; 61.3 µM in assay [2]; 44.1 µM in assay [3]; > 100 µM in assay [4]; 62.6 µM in assay [6]; 39.5 µM in assay [9]. The TGI in [8] turned out to be 55.3 µM.
Consider `CCOC(=O)C(C)(C)Oc1ccc2c(C)c(-c3ccc(Cl)cc3)c(=O)oc2c1`, for which the TGI in assay [1], in assay [2], in [3], in assay [4], in assay [6] and in assay [9] was > 100 µM throughout. For the same molecule, the TGI in [7] is > 100 µM.
For the molecule `O=c1n(-c2ccccc2)c(=O)n2n1C1C=CC2C2C(C1)C2(Cl)Cl` (configuration not stated), the TGI in [1], in assay [2], in assay [3], in [5], in assay [6] and in [9] was > 100 µM in each case. In addition, the TGI in [7] and in [8] was > 100 µM each time.
Consider `O=C(NCCCCN=c1cccccc1NCCCCNC(=O)OCc1ccccc1)OCc1ccccc1`, for which the TGI in assay [1] was found to be 53.9 µM; in [2] it was 29.4 µM; in assay [4], 32.8 µM; in assay [5] it was 36.8 µM; in assay [6], 30 µM; in assay [9], 25 µM. In addition, the TGI turned out to be 47.8 µM in assay [7] and 32.4 µM in [8].
As to `Cc1ccc(S(=O)(=O)N/N=C/c2oc(-c3ccncc3)c(-c3ccncc3)c2[N+](=O)[O-])cc1`, the TGI in assay [1], in assay [2], in assay [3], in assay [5], in assay [6] and in [9] was > 100 µM each time. In addition, the TGI in assay [7] and in assay [8] was > 100 µM throughout.
Turning to `CCC1C2C=CC(CC2)N1S(=O)(=O)c1ccc(C)cc1` (configuration not stated), the TGI in assay [2] is > 100 µM; in assay [3] it was 54.5 µM; in assay [4], 42.3 µM; in [5], 61.5 µM; in [6] it was 31.5 µM; in assay [9], > 100 µM. In addition, the TGI in assay [7] and in [8] was > 100 µM each time.
Consider `CCOC(=O)NC(=O)c1cn(CCOC(=O)NCCCCCCNC(=O)OCCn2cc(C(=O)NC(=O)OCC)c(=O)[nH]c2=O)c(=O)[nH]c1=O`, for which the TGI in [2], in assay [3], in [4], in assay [5], in [6] and in assay [9] was > 100 µM in each case. For the same molecule, the TGI in [7] and in assay [8] was > 100 µM throughout.
